What was measured:
AbATPPRT [1] = biological target: T1, AbATPPRT (Acinetobacter baumannii, UniProt A0A7U3XWM9); test: differential scanning fluorimetry, SYPRO Orange; type: binding; conditions: 250 μM PRATP, 8 μM enzyme, pH 8.5, 15 mM MgCl2, 100 mM KCl; unlabelled enzyme
T1 construct: gene hisG; hetero-octameric holoenzyme (two HisGS dimers flanking a HisZ tetramer) reconstituted in vitro from separately purified recombinant AbHisGS (E. coli BL21(DE3)) and AbHisZ; unlabelled (natural isotope abundance)
T1 sequence (A0A7U3XWM9 1-227): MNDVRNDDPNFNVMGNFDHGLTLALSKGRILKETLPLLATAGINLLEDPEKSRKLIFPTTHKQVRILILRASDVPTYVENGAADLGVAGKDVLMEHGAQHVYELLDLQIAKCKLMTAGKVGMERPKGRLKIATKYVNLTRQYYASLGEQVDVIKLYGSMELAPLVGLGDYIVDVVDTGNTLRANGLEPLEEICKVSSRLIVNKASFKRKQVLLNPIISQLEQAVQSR
T1 sequence (B2HWK9 1-388 partner): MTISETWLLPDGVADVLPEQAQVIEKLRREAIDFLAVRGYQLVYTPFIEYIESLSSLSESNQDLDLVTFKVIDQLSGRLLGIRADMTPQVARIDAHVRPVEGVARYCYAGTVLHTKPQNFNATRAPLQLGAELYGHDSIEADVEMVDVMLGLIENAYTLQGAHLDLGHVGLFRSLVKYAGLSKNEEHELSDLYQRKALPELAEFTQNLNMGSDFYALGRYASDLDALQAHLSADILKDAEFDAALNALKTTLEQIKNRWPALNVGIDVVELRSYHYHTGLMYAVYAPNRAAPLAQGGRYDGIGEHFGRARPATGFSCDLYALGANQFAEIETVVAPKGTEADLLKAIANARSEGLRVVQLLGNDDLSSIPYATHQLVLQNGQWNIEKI

AbATPPRT [2] = biological target: T1, AbATPPRT; test: dose-response of initial rate, PRATP formation; type: biochemical

SMILES	Tm increase (AbATPPRT [1])	IC50 (AbATPPRT [2])
N=c1c2ncn([C@@H]3O[C@H](COP(=O)(O)OP(=O)(O)OP(=O)(O)O)[C@@H](O)[C@H]3O)c2ncn1[C@@H]1O[C@H](COP(=O)(O)O)[C@@H](O)[C@H]1O [PRATP]	the presence of PRATP led only to marginal and mass-independent increases in Tm	
N[C@@H](Cc1c[nH]cn1)C(=O)O [histidine]		93 ± 6 µM

— PMC10998830 (Communications Chemistry, 2024)
